One experiment concerns the target Recombinant human BRD4(1-477) (Homo sapiens (Human), UniProt O60885). The experiment can be described thus: BRD4 TR-FRET biochemical IC50 assay. The following applies: BRD4 IC50, TR-FRET, tetra-acetylated histone peptide. The experiment is classed as binding. (In general: TR-FRET usually uses a lanthanide donor and a delayed reading to cut background.)
The IC50 is the concentration needed to halve the response being measured. Take `Cc1noc(C)c1-c1ccc2c(c1)C(O)(c1ccsc1)C(=O)N2` (single isomer, unassigned) [Compound 4.1a, 5-(3,5-Dimethylisoxazol-4-yl)-3-hydroxy-3-(thiophen-3-yl)indolin-2-one]: the IC50 came to 4.9 µM.

The same experiment, now with this note: TR-FRET, tetra-acetylated histone peptide; read-out: BRD4 IC50.
For the compound `Cc1noc(C)c1-c1ccc2c(c1)C(O)(c1ccccc1)C(=O)N2` (single isomer, unassigned) [Compound 1.1b, 5-(3,5-dimethylisoxazol-4-yl)-3-hydroxy-3-phenylindolin-2-one], the IC50 worked out at 7 µM.
On to `Cc1noc(C)c1-c1ccc2c(c1)C(O)(C1CCCCC1=O)C(=O)N2` (single isomer, unassigned) [Compound 1.30b, 5-(3,5-Dimethylisoxazol-4-yl)-3-hydroxy-3-(2-oxocyclohexyl)indolin-2-one], for which the IC50 stood at 0.65 µM.
Still for that read-out and setting: as for `Cc1noc(C)c1-c1ccc2c(c1)C(N[C@@H](CO)c1ccccc1)(c1ccccc1)C(=O)N2` (single isomer, unassigned) [Compound 2.7a], the figure is greater than 10 µM; as for `Cc1noc(C)c1-c1ccc2c(c1)C(N[C@@H](CO)c1ccccc1)(c1ccccc1)C(=O)N2` (single isomer, unassigned) [Compound 2.7b], 0.81 µM.
Still for that read-out and setting: to `Cc1noc(C)c1-c1ccc2c(c1)C(N[C@H](CO)c1ccccc1)(c1ccccc1)C(=O)N2` (single isomer, unassigned) [Compound 2.8a] belongs 0.51 µM; to `Cc1noc(C)c1-c1ccc2c(c1)C(N[C@H](CO)c1ccccc1)(c1ccccc1)C(=O)N2` (single isomer, unassigned) [Compound 2.8b], 2.2 µM; to `Cc1noc(C)c1-c1ccc2c(c1)C(N[C@@H](CO)C(C)C)(c1ccccc1)C(=O)N2` (single isomer, unassigned) [Compound 2.11a], 3.6 µM.
On the same count and under the same terms, to `Cc1noc(C)c1-c1ccc2c(c1)C(N[C@H](CO)C(C)C)(c1ccccc1)C(=O)N2` (single isomer, unassigned) [Compound 2.12b] belongs 3.4 µM.
Consider `Cc1noc(C)c1-c1ccc2c(c1)C(NC[C@@H](C)O)(c1ccccc1)C(=O)N2` (single isomer, unassigned) [Compound 2.13a], for which the IC50 is 0.71 µM.
Still for that read-out and setting: as for `Cc1noc(C)c1-c1ccc2c(c1)C(NC[C@H](C)O)(c1ccccc1)C(=O)N2` (single isomer, unassigned) [Compound 2.14b], the figure is 0.61 µM; as for `Cc1noc(C)c1-c1ccc2c(c1)C(N[C@H](CO)C(C)C)(C1CCCCC1)C(=O)N2` (single isomer, unassigned) [Compound 2.19a], greater than 10 µM.
Still for that read-out and setting: as for `Cc1noc(C)c1-c1ccc2c(c1)C(N[C@@H](CO)C(C)C)(C1CCCCC1)C(=O)N2` (single isomer, unassigned) [Compound 2.20a], the figure is 5.1 µM; as for `Cc1noc(C)c1-c1ccc2c(c1)C(N)(C1CCCCC1)C(=O)N2` (single isomer, unassigned) [Compound 2.37b, 3-Amino-3-cyclohexyl-5-(3,5-dimethylisoxazol-4-yl)indolin-2-one], 1.1 µM; as for `COC(=O)[C@@H]1C[C@@H](O)CN1C1(c2ccccc2)C(=O)Nc2ccc(-c3c(C)noc3C)cc21` (single isomer, unassigned) [Compound 2.50b], 0.85 µM.
On the same count and under the same terms, as for `Cc1noc(C)c1-c1ccc2c(c1)C(c1ccccc1)(N1C[C@@H](O)C[C@H]1CO)C(=O)N2` (single isomer, unassigned) [Compound 2.51a], the figure is 1.4 µM.
Turning to `Cc1noc(C)c1-c1ccc2c(c1)C(c1ccccc1)(N1C[C@@H](O)C[C@H]1CO)C(=O)N2` (single isomer, unassigned) [Compound 2.51b], the concentration for half-maximal inhibition (IC50) amounted to 0.067 µM.
On the same count and under the same terms, as for `Cc1noc(C)c1-c1ccc2c(c1)C(N[C@H](CO)Cc1cnc[nH]1)(c1ccccc1)C(=O)N2` (single isomer, unassigned) [Compound 2.57a, 5-(3,5-Dimethylisoxazol-4-yl)-3-((s)-1-hydroxy-3-(1h-imidazol-5-yl)propan-2-ylamino)-3-phenylindolin-2-one], the figure is 0.41 µM; as for `Cc1noc(C)c1-c1ccc2c(c1)C(N[C@H](CO)Cc1cnc[nH]1)(c1ccccc1)C(=O)N2` (single isomer, unassigned) [Compound 2.57b, 5-(3,5-Dimethylisoxazol-4-yl)-3-((s)-1-hydroxy-3-(1h-imidazol-5-yl)propan-2-ylamino)-3-phenylindolin-2-one], 0.041 µM; as for `Cc1noc(C)c1-c1ccc2c(c1)C(N)(c1ccc(F)cc1)C(=O)N2` (single isomer, unassigned) [Compound 2.59a, 3-amino-5-(3,5-dimethylisoxazol-4-yl)-3-(4-fluorophenyl)indolin-2-one], 4.1 µM.
On the same count and under the same terms, to `Cc1noc(C)c1-c1ccc2c(c1)C(N)(c1ccc(F)cc1)C(=O)N2` (single isomer, unassigned) [Compound 2.59b, 3-amino-5-(3,5-dimethylisoxazol-4-yl)-3-(4-fluorophenyl)indolin-2-one] belongs 0.036 µM; to `COc1ccc(C2(O)C(=O)Nc3ccc(-c4c(C)noc4C)cc32)cc1OC` (stereo not shown) [Compound 1.10, 3-(3,4-dimethoxyphenyl)-5-(3,5-dimethylisoxazol-4-yl)-3-hydroxyindolin-2-one], 1.3 µM; to `Cc1noc(C)c1-c1ccc2c(c1)C(O)(c1cccc3ccccc13)C(=O)N2` (stereo not shown) [Compound 1.11, 5-(3,5-dimethylisoxazol-4-yl)-3-hydroxy-3-(naphthalen-1-yl)indolin-2-one], 2.5 µM.
In the case of `Cc1noc(C)c1-c1ccc2c(c1)C(O)(C#Cc1ccccc1)C(=O)N2` (stereo not shown) [Compound 1.12, 5-(3,5-dimethylisoxazol-4-yl)-3-hydroxy-3-(phenylethynyl)indolin-2-one], the IC50 is 2.3 µM.
The same measure, in the same setting: to `CCC1(O)C(=O)Nc2ccc(-c3c(C)noc3C)cc21` (stereo not shown) [Compound 1.20, 5-(3,5-dimethylisoxazol-4-yl)-3-ethyl-3-hydroxyindolin-2-one] belongs 2.3 µM; to `C#CC1(O)C(=O)Nc2ccc(-c3c(C)noc3C)cc21` (stereo not shown) [Compound 1.21, 5-(3,5-dimethylisoxazol-4-yl)-3-ethynyl-3-hydroxyindolin-2-one], 1.2 µM; to `Cc1noc(C)c1-c1ccc2c(c1)C(O)(C(C)(C)C)C(=O)N2` (stereo not shown) [Compound 1.26, 3-tert-butyl-5-(3,5-dimethylisoxazol-4-yl)-3-hydroxyindolin-2-one], 3.2 µM.
Consider `Cc1noc(C)c1-c1ccc2c(c1)C(O)(C(C)C)C(=O)N2` (stereo not shown) [Compound 1.27, 5-(3,5-dimethylisoxazol-4-yl)-3-hydroxy-3-isopropylindolin-2-one], for which the half-maximal inhibitory concentration (IC50) came out at 2.8 µM.
For `C=C(C)CC1(O)C(=O)Nc2ccc(-c3c(C)noc3C)cc21` (stereo not shown) [Compound 1.28, 5-(3,5-dimethylisoxazol-4-yl)-3-hydroxy-2-(2-methylallyl)indolin-2-one], the half-maximal inhibitory concentration (IC50) stood at 3.9 µM.
On the same count and under the same terms, to `Cc1noc(C)c1-c1ccc2c(c1)C(O)(CCCc1ccccc1)C(=O)N2` (stereo not shown) [Compound 1.29, 5-(3,5-dimethylisoxazol-4-yl)-3-hydroxy-3-(3-phenylpropyl)indolin-2-one] belongs 1.6 µM; to `CC(=O)OC1(c2ccccc2)C(=O)Nc2ccc(-c3c(C)noc3C)cc21` (stereo not shown) [Compound 1.34, 5-(3,5-Dimethylisoxazol-4-yl)-2-oxo-3-phenylindolin-3-yl acetate], 0.15 µM.

(Values after patent US9393232B2 (BeiGene, Ltd., priority 2013, dated 2016).)
